Assay results taken from PMC4605843, “Cell-Penetrating Peptides Selectively Cross the Blood-Brain Barrier In Vivo” (PLoS ONE, 2015).
“And” between values parts separate entries of the source, which are not always exact repeats. Identical values can stand only once.

What was measured:
[1] = In vitro metabolic stability in mouse kidney homogenate; assay type: in vitro ADME; conditions: mouse kidney homogenate 0.6 mg/ml protein (500 μl, 300 μg protein) + Krebs-Henseleit buffer pH 7.4, 0.1 mg/ml peptide, 37°C, 750 rpm, 0-120 min, HPLC-UV 215 nm
Description: (§1) Prior to use, the protein content of each homogenate was determined using the Pierce Modified Lowry Protein Assay method (Thermo Scientific) to generate a stock solution with a protein concentration of 0.6 mg/ml by dilution with Krebs-Henseleit buffer (pH 7.4, Sigma-Aldrich). […] After sampling, enzymatic activity was terminated by additional heat inactivation at 95°C for 5 min, followed by cooling the samples in an ice bath for 30 min. […] Therefore, a solid phase extraction (SPE) protocol using an Oasis® WCX μelution plate (Waters, Zellik, Belgium) was used prior to HPLC-UV analysis. In the Supporting Information, the protocol of the SPE extraction procedure is described (S1 Text). Blank control solutions were prepared as described above, but without adding the peptide. To confirm chemical stability and mass balance, control reference solutions without tissue homogenate or with a prior heat inactivation were analyzed as well. The HPLC-UV system consisted of a Waters Alliance 2695 separation module and a Waters 2996 photodiode array (PDA) detector (detection from 190-400 nm, quantification at 215 nm), fitted with Empower 2 software for data handling (Waters). […] Appropriate gradients for separation of the peptides and their metabolites were created by mixtures of water (0.1% trifluoroacetic acid m/V) and acetonitrile (0.1% trifluoroacetic acid m/V).

[2] = system: blood-brain barrier (BBB); test: Classification of peptides according to their BBB influx; conditions: classification method of ref [61] applied to the measured influx
Description: This peptide is derived from the murine vascular endothelial (VE)-cadherin, located in the adherens junctions between the vascular endothelial cells, and constitutes the 13 cytosolic amino acids closest to the membrane and five amino acids from the C-terminus of the transmembrane region (615–632).

[3] = In vitro metabolic stability in mouse serum; assay type: in vitro ADME
Description: as §1

[4] = system: blood-brain barrier (BBB); test: Multiple time regression (MTR) analysis, blood-to-brain influx; assay type: in vivo, ICR-CD-1 mice; conditions: whole brain, ± 65% confidence limits
Description: Shortly, 200 μl of the radioiodinated CPP solution (30000 cpm/μl) was injected into the right jugular externalis vein of anesthetized ICR-CD-1 mice, which were then decapitated at 1, 3, 5, 10, 12.5 and 15 min post injection, with first and last time points performed in duplicate, after which brains were collected and measured for radioactivity using a gamma counter (Wallac Wizard 1470, Perkin Elmer). Shortly before decapitation, blood was collected from the left carotid artery, which was centrifuged (10000 g, 15 min at 21°C) in order to measure the radioactivity of blood and serum. Dermorphin and radioiodinated BSA were used as positive and negative control, respectively. The blood-to-brain entry during the experimental period of 15 min was evaluated by plotting the ratio of brain (Am(T)) and serum activity (Cp(T)), corrected for the brain weight and serum volume, respectively, versus the exposure time (Θ), expressing the theoretical steady state serum level of the iodinated peptide at a given serum concentration [37, 73]. The exposure time is calculated as the integral of the arterial serum radioactivity over time divided by the radioactivity at time t. The integral is calculated through the trapezoidal rule of the log-transformed data [73]. In the linear part of the curve, assuming a two-compartmental BBB model, data can be fitted using a linear model from which the unidirectional influx rate (Kin), also referred to as unidirectional blood to brain clearance K1 [46], and the initial brain distribution volume (Vi) can be determined using the following equation according to Gjedde and Patlak [37–40]: Am(T)/Cp(T)=Abrain(T)/Aserum(T)=Kin⋅Θ+Vi with Θ = ∫0TCp(t) ⋅ dt/Cp(T) (1)

[5] = In vitro metabolic stability in mouse liver homogenate; assay type: in vitro ADME; conditions: mouse liver homogenate 0.6 mg/ml protein (500 μl, 300 μg protein) + Krebs-Henseleit buffer pH 7.4, 0.1 mg/ml peptide, 37°C, 750 rpm, 0-120 min, HPLC-UV 215 nm
Description: as §1

[6] = system: blood-brain barrier (BBB); test: Brain-to-blood transport (efflux) after intracerebroventricular injection; conditions: ICR-CD-1 mice
Description: Female, ICR-CD-1 mice (Harlan Laboratories, Venray, The Netherlands), aged 7 to 10 weeks and weighing 28–36 g, were used during the in vivo BBB transport experiments. All animal experiments were performed in accordance with the Ethical Committee principles of laboratory animal welfare. The protocol was approved by the Ethical Committee of the Faculty of Veterinary Science of Ghent University (Permit Numbers: 2009–052 and 2014–128). Prior to experiments, mice were anesthetized by intraperitoneal injection of a 40% urethane solution (3 g/kg) (Sigma-Aldrich, Diegem, Belgium).
For evaluation of the efflux of the peptides out of the brain, 1 μl of a radioiodinated peptide solution (25000 cpm/μl) was injected in the lateral ventricle of anesthetized ICR-CD-1 mice at a speed of 360 μl/h for 10 s using a syringe pump (KDS100, KR analytical, Cheshire, UK). […] The brain half-time disappearance (t1/2,brain) was calculated from the linear regression of the natural logarithm of the residual radioactivity in brain versus time as follows: t1/2,brain=ln(2)/kout (5) with kout defined as the efflux rate constant calculated as the absolute value of the slope of the linear regression, applying first order kinetics. An extensive description of the protocol can be found elsewhere.

[7] = system: cellular uptake; design: method as in Stalmans et al.[1]; conditions: cell-penetrating (CP-) response, quantitative expression of cellular influx; ref Stalmans et al.[1]; cited from earlier work
[8] = In vitro metabolic stability in mouse brain homogenate; assay type: in vitro ADME; conditions: mouse brain homogenate 0.6 mg/ml protein (500 μl, 300 μg protein) + Krebs-Henseleit buffer pH 7.4, 0.1 mg/ml peptide, 37°C, 750 rpm, 0-120 min, HPLC-UV 215 nm
Description: as §1

[9] = system: brain parenchyma and capillaries; test: Capillary depletion method: brain parenchyma/capillary distribution; assay type: in vivo, ICR-CD-1 mice; conditions: capillary depletion, 10 min after IV injection of radiolabeled peptide (200 μl, 10000 cpm/μl), brain perfused with lactated Ringer's buffer, two ICR-CD-1 mice, gamma counter
Description: The capillary depletion method was used to evaluate the distribution of the peptide between the brain parenchyma and capillaries. In summary (see Materials and Methods in [45]), 200 μl of a radiolabeled peptide solution (10000 cpm/μl) was injected in the jugular externalis vein of two anesthetized ICR-CD-1 mice. Ten minutes after IV injection, mice were decapitated and brains were collected and measured for radioactivity. […] The resulting homogenate was weighed and centrifuged at 5400 g for 30 min at 4°C, resulting in a pellet, i.e. capillaries, and supernatant, i.e. parenchyma and fat tissue, which were weighed and measured in the gamma counter. […] Compartmental distribution was calculated as follows: Fractioncapillaries or parenchyma (%)=[…] or parenchyma/[…]×100 (4)

AGYLLGKINLKPLAALAKKIL-NH2 [TP10-2, transportan analog differing one amino acid from TP10]
Half-life, kidney [1]: 0.188 h | BBB influx class [2]: class 2 | Half-life, serum ([3]; mouse serum 500 μl + 400 μl Krebs-Henseleit buffer pH 7.4 + 100 μl 1 mg/ml peptide, 37°C, 750 rpm, sampling 0-120 min plus early points, HPLC-UV 215 nm, t1/2 = -ln(2)/slope): 3.823 h | Serum half-life ([3]; mouse serum in Krebs-Henseleit buffer pH 7.4, 37°C, SPE then HPLC-UV): 4 h | Kin (unidirectional influx rate), linear Gjedde-Patlak model ([4]; 125I-radioiodinated peptide, IV jugular vein 200 μl (30000 cpm/μl), anesthetized female ICR-CD-1 mice, 1-15 min, brain/serum radioactivity (gamma counter) vs exposure time, pVEC, SynB3, TP10: two experiments fitted together): 0.36 µL/g/min and 0.36 ± 0.06 µL/g/min | Vi (initial brain distribution volume), linear Gjedde-Patlak model ([4]; 125I-radioiodinated, IV, ICR-CD-1 mice, MTR 1-15 min): 10.07 ± 1.00 µL/g | Half-life, liver [5]: 1.97 h | kout (efflux transfer constant) ([6]; 1 μl radioiodinated peptide (25000 cpm/μl) in lateral ventricle, 1-15 min, slope of ln(brain activity) vs time): 0.06 ± 0.01 min⁻¹ | t1/2,brain (half-time disappearance) ([6]; ln(2)/kout after intracerebroventricular injection): 0.183 h | CP-response [7]: 0.749 | Half-life, brain [8]: 1.705 h | Parenchymal fraction [9]: 84%
